Experimental data published in ChEMBL document CHEMBL4002596, “Hydroxylated biphenyls as tyrosinase inhibitor: A spectrophotometric and electrochemical study” (Eur J Med Chem, 2017).
pIC50: −log10 of the molar value. Active and inactive are the calls of the source. The rule behind the calls is not given here.

What was measured:
[1] = target: T1, Mushroom tyrosinase (Agaricus bisporus) (UniProt O42713+Q00024+C7FF04+C7FF05); assay: Inhibition of mushroom tyrosinase assessed as reduction in caffeic acid oxidation measured after 6 mins by UV-Vis spectrophotometric method
[2] = target: T1, Mushroom tyrosinase (Agaricus bisporus); assay: Inhibition of immobilized mushroom tyrosinase diphenolase activity assessed as reduction in caffeic acid oxidation at 50 uM by amperometric tyrosinase biosensor method
[3] = Aqueous solubility of the compound; type: physicochemical; details: buffer
[4] = target: T1, Mushroom tyrosinase (Agaricus bisporus); assay: Inhibition of mushroom tyrosinase diphenolase activity assessed as reduction in caffeic acid oxidation measured after 6 mins by UV-Vis spectrophotometric method
Lymphocyte = assay: Cytotoxicity against human lymphocytes; type: cell-based
[5] = target: T1, Mushroom tyrosinase (Agaricus bisporus); assay: Inhibition of mushroom tyrosinase monophenolase activity assessed as reduction in lag time of enzymatic reaction at 50 uM using caffeic acid as substrate by amperometric tyrosinase biosensor method

Row | SMILES | inhibition [1] | inhibition [2] | solubility [3] | inhibition [4] [%] | pIC50 (Lymphocyte) | inhibition [5]
1 | Oc1ccc(-c2ccc(O)cc2)cc1 | Active | Active | – | – | – | –
2 | COc1cc(C)c(-c2cc(O)c(OC)cc2C)cc1O | – | Active | – | – | – | –
3 | Oc1cccc(O)c1-c1c(O)cccc1O | Active | Active | – | – | – | –
4 | COc1cc(O)cc(-c2cc(O)cc(OC)c2OC)c1OC | Active | Active | – | – | – | –
5 | Oc1ccccc1-c1ccccc1O | 10% | 10 to 20% | – | – | – | –
6 | Oc1ccc(-c2ccc(O)c(O)c2)cc1O | Active | Active | Soluble | 60 | – | –
7 | C=CCc1cc(-c2ccc(O)c(CC=C)c2)ccc1O | Active | Active | – | – | > 4.00 | –
8 | Oc1ccc2c(c1-c1c(O)ccc3c1OCO3)OCO2 | Active | 82% | – | – | – | Active
